Common to all, as to type: in vivo
In test [1] the test system is Housefly [Musca domestica]. Description: Housefly insecticidal test. The settings on record: μg per 25 female flies; mortality after 48 hours. The gist of the method: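 Dose range started at 100 μg per 25 female flies and went downward. Insects (1-2 days old) contacted a dried acetone/peanut-oil deposit in dishes; LC50 values come from dosage-mortality curves at 48 h.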

The test system of test [2] is Cabbage Looper [Trichoplusia ni (Hubner)]. Description: Cabbage looper insecticidal test. The settings on record: second-instar larvae, percent in solution; 3-5 days. The gist of the method:
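LC50, as percent test compound in solution, derived from dosage-mortality curves; concentrations started at 0.1% and went lower. Five second-instar larvae per dish fed on acetone-water-dipped, dried squash cotyledons in a humid chamber. Deaths recorded 3-5 days post-infestation.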

The subject of test [3] is Tobacco Budworm [Heliothis virescens (Fabricius)] eggs. The test is described as follows: Tobacco budworm egg test. The settings on record: 2-day old eggs, percent in solution. The gist of the method:
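LC50 is given as percent compound in the dipping solution, fitted from dosage-mortality curves. Two-day-old eggs on paper towel were dipped in acetone solutions (top concentration 0.1%), kept at 78° F on rearing medium, and scored after control hatch and larval feeding.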

Some results are limits rather than exact numbers.

As for `C=CCOc1cccc(COC(=Nc2cccc(C(F)(F)F)c2)C(C)C)c1` [Compound 480], the “LC50, HF” value in test [1] is above 100 µg. The “LC50, CL” value in test [2] was 0.01%. Besides, the “LC50, TBW, E (TBW-E)” value in test [3] was above 0.1%.

Turning to `C=CCOc1cccc(COC(=Nc2ccc(Cl)c(Cl)c2)C(C)C)c1` [Compound 481], the “LC50, HF” value in test [1] is above 100 µg. For the same molecule, in test [2], the “LC50, CL” value came out at 0.015%. The “LC50, TBW, E (TBW-E)” value in test [3] is listed as above 0.1%.

`CC(C)C(=Nc1ccc(Cl)cc1)OCc1coc(Cc2ccccc2)c1` [Compound 484]: the “LC50, HF” value in test [1] amounted to 16 µg. Further, the “LC50, CL” value in test [2] came out at 0.003%. Moreover, in test [3], the “LC50, TBW, E (TBW-E)” value was above 0.1%.

With `CC(C)C(=Nc1ccc(F)c(F)c1)OCc1coc(Cc2ccccc2)c1` [Compound 485], the “LC50, HF” value in test [1] was found to be 24 µg. Also, the “LC50, CL” value in test [2] is reported as above 0.1%. The “LC50, TBW, E (TBW-E)” value in test [3] was above 0.1%.

For `CC(C)C(=Nc1ccc(F)c(Cl)c1)OCc1ccc(OCc2ccc(F)cc2)cc1` [Compound 487], in test [1], the “LC50, HF” value is above 100 µg. In addition, the “LC50, CL” value in test [2] is given as 0.023%. Besides, the “LC50, TBW, E (TBW-E)” value in test [3] is given as above 0.1%.

As for `CC(C)C(=Nc1cccc(C(F)(F)F)c1)OCc1ccc(OCc2ccc(F)cc2)cc1` [Compound 488], in test [1], the “LC50, HF” value is above 100 µg. Further, the “LC50, CL” value in test [2] was 0.025%. Moreover, the “LC50, TBW, E (TBW-E)” value in test [3] is above 0.1%.

For the molecule `CC(C)C(=Nc1cccc(C(F)(F)F)c1)OCc1cccc(OCc2ccc(F)cc2)c1` [Compound 489], the “LC50, HF” value in test [1] was above 100 µg. In addition, in test [2], the “LC50, CL” value is below 0.1%. Besides, the “LC50, TBW, E (TBW-E)” value in test [3] is listed as above 0.1%.

Consider `CC(C)C(=Nc1ccc(F)cc1)OCc1coc(Cc2ccccc2)c1` [Compound 491], for which the “LC50, HF” value in test [1] came out at 9 µg. The “LC50, CL” value in test [2] is 0.0028%. For the same molecule, the “LC50, TBW, E (TBW-E)” value in test [3] stood at 0.08%.

For `CC(C)C(=Nc1cccc(C(F)(F)F)c1)OCc1cccc(Oc2ccc(Br)cc2)n1` [Compound 493], the “LC50, HF” value in test [1] amounted to 36 µg. In addition, the “LC50, CL” value in test [2] worked out at 0.0008%. In addition, in test [3], the “LC50, TBW, E (TBW-E)” value is recorded as 0.05%.

As to `Cc1ccc(Oc2cccc(COC(=Nc3ccc(F)c(Cl)c3)C(C)C)n2)cc1` [Compound 494], in test [1], the “LC50, HF” value amounted to 34 µg. For the same molecule, the “LC50, CL” value in test [2] amounted to 0.003%. In addition, the “LC50, TBW, E (TBW-E)” value in test [3] was above 0.1%.

As for `Cc1ccc(Oc2cccc(COC(=Nc3cccc(C(F)(F)F)c3)C(C)C)n2)cc1` [Compound 495], the “LC50, HF” value in test [1] was above 100 µg. Moreover, the “LC50, CL” value in test [2] is listed as 0.012%. The “LC50, TBW, E (TBW-E)” value in test [3] amounted to 0.1%.

Regarding `CC(C)C(=Nc1ccc(C(C)(C)C)cc1)OCc1cccc(Oc2ccccc2)n1` [Compound 496], the “LC50, HF” value in test [1] is above 100 µg. Further, the “LC50, CL” value in test [2] is recorded as 0.006%. Further, the “LC50, TBW, E (TBW-E)” value in test [3] is above 0.1%.

As for `CC(C)C(=Nc1ccc(C(C)(C)C)cc1)OCc1cccc(Oc2ccc(Cl)cc2)n1` [Compound 497], the “LC50, HF” value in test [1] was above 100 µg. The “LC50, CL” value in test [2] is 0.0075%. Besides, the “LC50, TBW, E (TBW-E)” value in test [3] is on record as above 0.1%.

`CC(C)C(=Nc1ccc(F)c(Cl)c1)OC(C)c1cccc(Oc2ccccc2)n1` (stereo not drawn) [Compound 498]: in test [1], the “LC50, HF” value was found to be 49 µg. Besides, the “LC50, CL” value in test [2] was 0.002%. Also, the “LC50, TBW, E (TBW-E)” value in test [3] is above 0.1%.

For the molecule `CC(C)C(=Nc1cccc(C(F)(F)F)c1)OC(C)c1cccc(Oc2ccccc2)n1` (stereo not drawn) [Compound 499], in test [1], the “LC50, HF” value stood at 63 µg. Besides, the “LC50, CL” value in test [2] came out at 0.0024%. In test [3], the “LC50, TBW, E (TBW-E)” value is above 0.1%.

For `COCc1c(F)c(F)c(COC(=Nc2ccc3c(c2)OCO3)C(C)C)c(F)c1F` [Compound 501], in test [1], the “LC50, HF” value was 20 µg. The “LC50, CL” value in test [2] was 0.00045%. Further, the “LC50, TBW, E (TBW-E)” value in test [3] is above 0.1%.

The values above are taken from patent publication US5070210A, “Novel ketenimines as intermediates for insecticides” (ICI Americas Inc., priority 1990, dated 1991).
